Measurements taken from ChEMBL document CHEMBL5385865, “Discovery and optimization of 2-(trifluoromethyl)benzimidazole derivatives as novel ferroptosis inducers in vitro and in vivo” (Eur J Med Chem, 2023).
Active and inactive are the calls of the source. The rule behind the calls is not given here.

Assays:
HT-1080 [1] = test: Lethality in human HT-1080 cells assessed as cell survival at 10 uM incubated for 24 hrs by MTT assay relative to control; assay type: functional; settings: read-out: Activity
[2] = Metabolic stability in rat liver microsomes assessed as intrinsic clearance measured per mg protein at 1 uM in presence of NADPH by LC-MS analysis; assay type: ADME, Microsome; settings: read-out: CLH
[3] = Metabolic stability in human liver microsomes assessed as intrinsic clearance measured per mg protein at 1 uM in presence of NADPH by LC-MS analysis; assay type: ADME, Microsome; settings: read-out: CLH
HT-1080 [4] = test: Lethality in human HT-1080 cells assessed as inhibition of cell viability incubated for 24 hrs by MTT assay; assay type: functional, cell-based; settings: HT-1080, 24 h
[5] = Metabolic stability in human liver microsomes assessed as half life at 1 uM in presence of NADPH by LC-MS analysis; assay type: ADME, Microsome
[6] = Metabolic stability in […] rat microsomes assessed as half life at 1 uM in presence of NADPH by LC-MS analysis; assay type: ADME, Liver, Microsome
[7] = target: T1, Cystine/glutamate transporter (Homo sapiens) (UniProt Q9UPY5); test: Inhibition of Xc- in human HT-1080 cells assessed as decrease in glutamate release at 5 uM incubated for 3 hrs by Amplex red assay; assay type: cell-based
T1 sequence (whole entry): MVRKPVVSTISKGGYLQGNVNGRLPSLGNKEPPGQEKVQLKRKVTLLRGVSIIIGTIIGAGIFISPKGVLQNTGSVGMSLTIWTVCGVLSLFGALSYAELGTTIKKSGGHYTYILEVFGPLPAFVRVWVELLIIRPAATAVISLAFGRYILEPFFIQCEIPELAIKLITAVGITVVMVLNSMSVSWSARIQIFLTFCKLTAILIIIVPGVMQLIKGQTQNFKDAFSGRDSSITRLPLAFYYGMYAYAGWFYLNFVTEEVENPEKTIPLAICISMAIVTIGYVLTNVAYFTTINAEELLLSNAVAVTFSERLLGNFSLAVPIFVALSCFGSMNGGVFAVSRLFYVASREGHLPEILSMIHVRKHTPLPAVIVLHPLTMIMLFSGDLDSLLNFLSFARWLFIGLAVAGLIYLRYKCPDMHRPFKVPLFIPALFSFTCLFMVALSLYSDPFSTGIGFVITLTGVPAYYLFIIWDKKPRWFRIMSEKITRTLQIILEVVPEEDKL

[8] = target: T2, Phospholipid hydroperoxide glutathione peroxidase GPX4 (Homo sapiens) (UniProt P36969); test: Inhibition of GPX4 in human HT-1080 cells at 5 uM incubated for 2 hrs; assay type: cell-based
T2 sequence (whole entry): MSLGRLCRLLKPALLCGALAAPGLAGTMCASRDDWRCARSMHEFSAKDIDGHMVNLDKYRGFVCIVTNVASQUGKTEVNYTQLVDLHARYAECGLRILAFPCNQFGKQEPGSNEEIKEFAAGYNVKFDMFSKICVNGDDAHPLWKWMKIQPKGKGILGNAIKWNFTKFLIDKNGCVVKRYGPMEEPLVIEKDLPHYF

Row | SMILES | viability at 10 µM (HT-1080 [1]) | IC50 (HT-1080 [4]) | other results
1 | CC(C)(C)c1ccc(N2CCC(Cn3c(C(F)(F)F)nc4ccccc43)CC2)cc1 | < 50% | – | –
2 | CCOc1ccccc1Cc1nc2ccccc2n1CC1CCN(c2ccc(S(=O)(=O)N(C)C)cc2)CC1 | < 50% | – | –
3 | FC(F)(F)c1nc2ccccc2n1CC1CCN(c2ccc(N3CCOCC3)c(Cl)c2)CC1 | < 50% | – | –
4 | O=S(=O)(c1ccc(N2CCC(Cn3c(C(F)(F)F)nc4ccccc43)CC2)cc1)N1CCOCC1 | – | 1.89 µM | microsomal CLint at 1 µM [2]: 187 µL/min/mg; microsomal CLint at 1 µM [3]: 118 µL/min/mg; half-life at 1 µM [5]: 11.7 min; half-life at 1 µM [6]: 7.4 min
5 | CC(C)Oc1ccc(N2CCC(Cn3c(C(F)(F)F)nc4ccccc43)CC2)cc1Cl | < 50% | – | –
6 | CCOc1ccccc1-c1nc2ccccc2n1CC1CCN(c2ccc(S(=O)(=O)N(C)C)cc2)CC1 | < 50% | – | –
7 | CN1C(=O)c2ccc(N3CCC(Cn4c(C(F)(F)F)nc5ccccc54)CC3)cc2C1=O | < 50% | – | –
8 | COc1ccc(N2CCC(Cn3c(C(F)(F)F)nc4ccccc43)CC2)cc1Cl | < 50% | – | –
9 | CN(C)C(=O)c1ccc(N2CCC(Cn3c(C(F)(F)F)nc4ccccc43)CC2)cc1Cl | – | 2.53 µM | –
10 | CCOc1ccccc1-n1c(C(C)N2CCN(C(=O)COc3ccc(Cl)cc3)CC2)nc2ccccc2c1=O (stereo not given) [ERASTIN] | – | 1.52 µM | microsomal CLint at 1 µM [2]: 400 µL/min/mg; inhibition [7]: Active; microsomal CLint at 1 µM [3]: 349 µL/min/mg; half-life at 1 µM [5]: 4 min; half-life at 1 µM [6]: 3.5 min
11 | CN(C)C(=O)c1ccc(N2CCC(Cn3cnc4c(C(F)(F)F)cccc43)CC2)cc1Cl | < 50% | – | –
12 | CN(C)c1ccc(C(=O)N2CCC(Cn3c(C(F)(F)F)nc4ccccc43)CC2)cc1 | – | 8.17 µM | –
13 | CN(C)C(=O)c1cccc(N2CCC(Cn3c(C(F)(F)F)nc4ccccc43)CC2)c1 | < 50% | – | –
14 | CN(C)C(=O)c1ccc(N2CCC(Cn3ccc4ccccc43)CC2)cc1Cl | < 50% | – | –
15 | FC(F)(F)c1ccc(N2CCC(Cn3c(C(F)(F)F)nc4ccccc43)CC2)cc1Cl | < 50% | – | –
16 | O=C(c1ccc(N2CCC(Cn3c(C(F)(F)F)nc4ccccc43)CC2)cc1)N1CCCC1 | – | 1.49 µM | microsomal CLint at 1 µM [2]: 164 µL/min/mg; microsomal CLint at 1 µM [3]: 105 µL/min/mg; half-life at 1 µM [5]: 13.2 min; half-life at 1 µM [6]: 8.6 min

Row | SMILES | viability at 10 µM (HT-1080 [1]) | IC50 (HT-1080 [4]) | other results
17 | CS(=O)(=O)c1cc(N2CCC(Cn3c(C(F)(F)F)nc4ccccc43)CC2)ccc1CO | – | 7.47 µM | –
18 | CC(=O)Nc1ccc(N2CCC(Cn3c(C(F)(F)F)nc4ccccc43)CC2)cc1Cl | < 50% | – | –
19 | CN(C)C(=O)c1ccc(N2CCC(Cn3c(C(F)(F)F)nc4ccccc43)CC2)cc1F | – | 2.11 µM | –
20 | CC(C)c1ccc(N2CCC(Cn3c(C(F)(F)F)nc4ccccc43)CC2)cc1 | < 50% | – | –
21 | CN(C)C(=O)c1ccc(N2CCC(Cn3cnc4ccccc43)CC2)cc1Cl | < 50% | – | –
22 | O=C(COc1ccc(Cl)cc1)N1CCC(Cn2c(C(F)(F)F)nc3ccccc32)CC1 | – | 3.16 µM | –
23 | CCN(CC)C(=O)c1ccc(N2CCC(Cn3c(C(F)(F)F)nc4ccccc43)CC2)cn1 | – | 3.46 µM | –
24 | COC(=O)c1ccc([C@H]2c3[nH]c4ccccc4c3C[C@H](C(=O)OC)N2C(=O)CCl)cc1 | – | – | inhibition [8]: Active
25 | COC(=O)c1ccc(N2CCC(Cn3c(C(F)(F)F)nc4ccccc43)CC2)cc1Cl | < 50% | – | –
26 | CCN(CC)C(=O)c1ccc(N2CCC(Cn3c(C(F)(F)F)nc4ccccc43)CC2)cc1 | – | 2.21 µM | –
27 | FC(F)(F)c1nc2ccccc2n1CC1CCN(c2ccc(C3CCCCC3)cc2)CC1 | < 50% | – | –
28 | CN(C)S(=O)(=O)c1ccc(N2CCC(Cn3c(-c4ccccc4)nc4ccccc43)CC2)cc1 | < 50% | – | –
29 | CCOc1cccc(-c2nc3ccccc3n2CC2CCN(c3ccc(S(=O)(=O)N(C)C)cc3)CC2)c1 | < 50% | – | –
30 | COC(=O)c1ccc(N2CCC(Cn3c(C(F)(F)F)nc4ccccc43)CC2)cc1S(C)(=O)=O | – | 6.64 µM | –
31 | CN(C)C(=O)c1ccc(N2CCC(Cn3c(C(F)(F)F)nc4ccccc43)CC2)cc1 | – | 3.06 µM | –
32 | CN(C)c1ccc(CC(=O)N2CCC(Cn3c(C(F)(F)F)nc4ccccc43)CC2)cc1 | – | 3.48 µM | –
